Experimental findings from patent US20120196791A1, “COMBINATION THERAPIES USING ANTIBACTERIAL AMINOGLYCOSIDE COMPOUNDS” (Achaogen, Inc., priority 2009, published 2012) are described below.

SMILES strings stand for the structures. Where two headings read alike, the source gives them in different places.

Holding throughout (type): cell-based
In one assay the test system is S. aureus strains. Put plainly: MIC by macrodilution. The text has this:
(§1) “MIC”, which stands for minimum inhibitory concentration, refers to that concentration, in μg/mL, of a compound of this invention that inhibits the growth and/or proliferation of a strain of bacteria by at least 80% compared to an untreated control as determined by visual inspection of a liquid culture.
Synergy time-kill was used to test the activity of Example 1, alone and in combination with daptomycin (DAP), ceftobiprole (BPR), and linezolid (LZD), against 25 S. aureus strains. 25 clinical isolates included 2 hVISA, 2 VISA, and 5 VRSA, 10 hospital acquired and 6 community acquired MRSA strains. MICs were determined by macrodilution and time-kill was used to verify the activity of all four agents alone. MICs were predetermined by macrodilution in cation-adjusted Mueller-Hinton broth (BBL Microbiology Systems, Cockeysville, Md.) according to standard methodology. Daptomycin susceptibility testing was performed in Mueller-Hinton broth adjusted to 50 μg/mL of calcium according to standard methodology. All strains were tested by time-kill methodology with each compound alone according to standard methods. Cultures were initiated by adding 35-μL aliquots of suspensions into 5 mL of broth. Viability counts (100-μL aliquots) in synergy tests were performed at 0, 3, 6, 12, and 24 h in a shaking water bath at 35° C. with final inocula of between 5×10^5 and 5×10^6 CFU/mL. Only plates with 30 to 300 colonies were counted.

For assay [1], the system named is P. aeruginosa strains. In words: MIC by macrodilution.
Source text: as §1
Synergy time-kill was used to test the activity of Example 1, alone and in combination with cefepime, doripenem, imipenem and piperacillin/tazobactam, against 10 P. aeruginosa strains. The 10 clinical isolates included 5 cefepime resistant, 5 doripenem resistant, 8 imipenem resistant, and 9 piperacillin/tazobactam resistant strains. MICs were determined by macrodilution and time-kill was used to verify the activity of all five agents alone. MICs were predetermined by macrodilution in cation-adjusted Mueller-Hinton broth (BBL Microbiology Systems, Cockeysville, Md.) according to standard methodology. All strains were tested by time-kill methodology with each compound alone according to standard methods. Strains were examined by PCR for genes encoding aminoglycoside modifying enzymes (AMEs). Cultures were initiated by adding 35-μL aliquots of suspensions into 5 mL of broth. Viability counts (100-μL aliquots) in synergy tests were performed at 0, 3, 6, 12, and 24 h in a shaking water bath at 35° C. with final inocula of between 5×10^5 and 5×10^6 CFU/mL. Only plates with 30 to 300 colonies were counted.

For assay [2], the system named is P. aeruginosa strains. Put plainly: Synergy time-kill. The following applies: with each drug tested, majority of isolates, 24 h.
Setting [3] is: Pseudomonas aeruginosa, Strain 1, read-out: MIC.
Where [4] appears, read: Pseudomonas aeruginosa, Strain 2, read-out: MIC.
The mark [5] stands for this setting: Pseudomonas aeruginosa, Strain 3, read-out: MIC.
The mark [6] stands for this setting: Pseudomonas aeruginosa, Strain 4, read-out: MIC.
Setting [7] is: Pseudomonas aeruginosa, Strain 5, read-out: MIC.
[8] abbreviates: Pseudomonas aeruginosa, Strain 6, read-out: MIC.
[9] abbreviates: Pseudomonas aeruginosa, Strain 7, read-out: MIC.
Where [10] appears, read: Pseudomonas aeruginosa, Strain 8, read-out: MIC.
[11] abbreviates: Pseudomonas aeruginosa, Strain 9, read-out: MIC.
[12] abbreviates: Pseudomonas aeruginosa, Strain 10, read-out: MIC.
Setting [13] is: Pseudomonas aeruginosa, range over 10 P. aeruginosa strains, read-out: MICs of each agent alone.

`CN[C@@H]1[C@@H](O)[C@@H](O[C@@H]2[C@@H](O)[C@H](O[C@H]3OC(CNCCO)=CC[C@H]3N)[C@@H](N)C[C@H]2NC(=O)[C@@H](O)CCN)OC[C@]1(C)O` [Example 1, 6′-(2-Hydroxy-ethyl)-1-(4-amino-2(S)-hydroxy-butyryl)-sisomicin]: the MIC in the assay with S. aureus strains (Strain 1, VRSA) is 1.0 µg/mL; in the assay on S. aureus strains (Strain 2, VRSA), 0.5 µg/mL; in the assay on S. aureus strains (Strain 3, VRSA) it was 1.0 µg/mL; with S. aureus strains (Strain 4, VRSA), 2.0 µg/mL; in the assay on S. aureus strains (Strain 5, VRSA) it was 1.0 µg/mL; with S. aureus strains (Strain 6, CA-MRSA, PVL+) it was 4.0 µg/mL. Also, the MIC with S. aureus strains (Strain 7, CA-MRSA, PVL+) came out at 2.0 µg/mL; in the assay on S. aureus strains (Strain 8, CA-MRSA, PVL+), 4.0 µg/mL; in the assay with S. aureus strains (Strain 9, hVISA), 1.0 µg/mL; with S. aureus strains (Strain 10, hVISA), 1.0 µg/mL; with S. aureus strains (Strain 11, VISA) it was 4.0 µg/mL; in the assay on S. aureus strains (Strain 12, VISA), 4.0 µg/mL. The MIC in the assay with S. aureus strains (Strain 13, ATCC33591 HA-MRSA) is 8.0 µg/mL; in the assay on S. aureus strains (Strain 14, HA-MRSA), 2.0 µg/mL; with S. aureus strains (Strain 15, HA-MRSA) it was 2.0 µg/mL; in the assay with S. aureus strains (Strain 16, HA-MRSA), 2.0 µg/mL; in the assay with S. aureus strains (Strain 17, HA-MRSA), 4.0 µg/mL; in the assay with S. aureus strains (Strain 18, HA-MRSA) it was 2.0 µg/mL. The MIC in the assay on S. aureus strains (Strain 19, HA-MRSA) turned out to be 2.0 µg/mL; in the assay on S. aureus strains (Strain 20, HA-MRSA) it was 2.0 µg/mL; in the assay with S. aureus strains (Strain 21, HA-MRSA), 4.0 µg/mL; in the assay on S. aureus strains (Strain 22, HA-MRSA), 4.0 µg/mL; in the assay with S. aureus strains (Strain 23, CA-MRSA PVL+) it was 4.0 µg/mL; with S. aureus strains (Strain 24, CA-MRSA PVL+) it was 4.0 µg/mL. Besides, the MIC in the assay with S. aureus strains (Strain 25, CA-MRSA PVL neg) was found to be 2.0 µg/mL; in the assay on P. aeruginosa strains [1] (Strain 1) it was 64 µg/mL; in the assay with P. aeruginosa strains [1] (Strain 2), 16 µg/mL; in the assay on P. aeruginosa strains [1] (Strain 3), 16 µg/mL; with P. aeruginosa strains [1] (Strain 4), 16 µg/mL; with P. aeruginosa strains [1] (Strain 5), 32 µg/mL. The MIC was 8 µg/mL in the assay on P. aeruginosa strains [1] (Strain 6); 16 µg/mL in the assay with P. aeruginosa strains [1] (Strain 7); 16 µg/mL with P. aeruginosa strains [1] (Strain 8); 16 µg/mL in the assay with P. aeruginosa strains [1] (Strain 9); 32 µg/mL in the assay on P. aeruginosa strains [1] (Strain 10). For the same compound, the “MICs of each agent alone” value in the assay with S. aureus strains (range over 25 S. aureus strains) lay in the range of 0.5 to 8 µg/mL; with P. aeruginosa strains [1] (range over 10 P. aeruginosa strains) it was 8 to 64 µg/mL. In addition, the “MICs for strains with genes encoding AMEs” value with P. aeruginosa strains [1] (3 strains: 2 ant(2″)-Ia, 1 aac(6′)-Ib) is reported as “equivalent to strains lacking AMEs”. Also, in the assay with P. aeruginosa strains [2], the “Example 1 concentration yielding synergy” value is listed as “¼”.

Take `C[C@@H](O)[C@H]1C(=O)N2C(C(=O)O)=C(S[C@@H]3CN[C@H](CNS(N)(=O)=O)C3)[C@H](C)[C@H]12` [Doripenem, doripenem]: the MIC in the assay with P. aeruginosa strains [1] (setting [3]) was 2 µg/mL; with P. aeruginosa strains [1] (setting [4]), 0.25 µg/mL; in the assay with P. aeruginosa strains [1] (setting [5]), 4 µg/mL; in the assay on P. aeruginosa strains [1] (setting [6]) it was 2 µg/mL; in the assay with P. aeruginosa strains [1] (setting [7]), 8 µg/mL; in the assay with P. aeruginosa strains [1] (setting [8]), 0.5 µg/mL. The MIC was 8 µg/mL in the assay with P. aeruginosa strains [1] (setting [9]); 2 µg/mL in the assay with P. aeruginosa strains [1] (setting [10]); 32 µg/mL in the assay with P. aeruginosa strains [1] (setting [11]); 8 µg/mL in the assay with P. aeruginosa strains [1] (setting [12]); 0.25 to 32 µg/mL with P. aeruginosa strains [1] (setting [13]).

For the compound `CO/N=C(\C(=O)N[C@@H]1C(=O)N2C(C(=O)[O-])=C(C[N+]3(C)CCCC3)CS[C@H]12)c1csc(N)n1` [Cefepime, cefepime], the MIC amounted to 256 µg/mL in the assay with P. aeruginosa strains [1] (Pseudomonas aeruginosa); 16 µg/mL in the assay with P. aeruginosa strains [1] (setting [3]); 4 µg/mL in the assay with P. aeruginosa strains [1] (setting [4]); 8 µg/mL in the assay on P. aeruginosa strains [1] (setting [5]); 8 µg/mL with P. aeruginosa strains [1] (setting [6]); 32 µg/mL with P. aeruginosa strains [1] (setting [7]). Further, the MIC was 1 µg/mL in the assay with P. aeruginosa strains [1] (setting [8]); 16 µg/mL in the assay with P. aeruginosa strains [1] (setting [9]); 4 µg/mL in the assay with P. aeruginosa strains [1] (setting [10]); 32 µg/mL with P. aeruginosa strains [1] (setting [11]); 1 to 256 µg/mL in the assay on P. aeruginosa strains [1] (setting [13]).

With `C[C@@H](O)[C@H]1C(=O)N2C(C(=O)O)=C(SCCN=CN)C[C@H]12` [Imipenem, imipenem], the MIC is 8 µg/mL with P. aeruginosa strains [1] (setting [3]); 2 µg/mL with P. aeruginosa strains [1] (setting [4]); 8 µg/mL in the assay with P. aeruginosa strains [1] (setting [5]); 16 µg/mL with P. aeruginosa strains [1] (setting [6]); 32 µg/mL with P. aeruginosa strains [1] (setting [7]); 0.25 µg/mL with P. aeruginosa strains [1] (setting [8]). Besides, the MIC in the assay on P. aeruginosa strains [1] (setting [9]) was 4 µg/mL; in the assay on P. aeruginosa strains [1] (setting [10]), 4 µg/mL; in the assay with P. aeruginosa strains [1] (setting [11]), 32 µg/mL; in the assay with P. aeruginosa strains [1] (setting [12]), 32 µg/mL; in the assay on P. aeruginosa strains [1] (setting [13]), 0.25 to 32 µg/mL.
